The source made the active and inactive calls. No cut-off for these calls is given here.
How the values were obtained:
Acetylcholinesterase [1] = target: T1, Acetylcholinesterase (Homo sapiens, UniProt P22303); assay: Inhibition of AChE (unknown origin) using acetylthiocholine iodide as substrate by DTNB reagent based Ellman's method
Cholinesterase = Cholinesterase (Homo sapiens, UniProt P06276); assay: Inhibition of BuChE (unknown origin) using butyrylthiocholine iodide as substrate by DTNB reagent based Ellman's method
Cholinesterase, sequence (P06276 whole entry): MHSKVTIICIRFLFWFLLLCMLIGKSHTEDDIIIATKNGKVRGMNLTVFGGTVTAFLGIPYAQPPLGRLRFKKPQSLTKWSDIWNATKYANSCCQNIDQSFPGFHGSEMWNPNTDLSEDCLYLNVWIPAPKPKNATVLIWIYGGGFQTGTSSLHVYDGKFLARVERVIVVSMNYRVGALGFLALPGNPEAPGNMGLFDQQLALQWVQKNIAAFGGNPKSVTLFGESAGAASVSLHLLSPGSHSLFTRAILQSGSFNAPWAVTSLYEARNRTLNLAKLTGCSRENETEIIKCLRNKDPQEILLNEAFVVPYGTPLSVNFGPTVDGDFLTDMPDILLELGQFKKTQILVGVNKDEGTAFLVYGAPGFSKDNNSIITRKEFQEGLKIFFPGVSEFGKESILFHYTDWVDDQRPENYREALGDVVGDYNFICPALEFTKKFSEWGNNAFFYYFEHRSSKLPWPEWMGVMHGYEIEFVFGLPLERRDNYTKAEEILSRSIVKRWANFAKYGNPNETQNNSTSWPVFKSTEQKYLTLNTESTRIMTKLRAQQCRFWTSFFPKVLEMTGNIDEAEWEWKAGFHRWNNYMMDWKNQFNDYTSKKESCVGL

Acetylcholinesterase [2] = target: T1, Acetylcholinesterase; assay: Mixed type inhibition of AChE (unknown origin) using acetylthiocholine iodide as substrate by Lineweaver-Burk double reciprocal plot analysis
[3] = target: 5-hydroxytryptamine receptor 4 (Homo sapiens) (UniProt Q13639); assay: Displacement of [3H]GR113808 from human 5-HT4 receptor expressed in Chem-1 cell membrane incubated for 60 mins by radiometric scintillation counting analysis relative to control; type: cell membranes; details: filed as agonist
5-hydroxytryptamine receptor 4 (Homo sapiens), sequence (Q13639 whole entry): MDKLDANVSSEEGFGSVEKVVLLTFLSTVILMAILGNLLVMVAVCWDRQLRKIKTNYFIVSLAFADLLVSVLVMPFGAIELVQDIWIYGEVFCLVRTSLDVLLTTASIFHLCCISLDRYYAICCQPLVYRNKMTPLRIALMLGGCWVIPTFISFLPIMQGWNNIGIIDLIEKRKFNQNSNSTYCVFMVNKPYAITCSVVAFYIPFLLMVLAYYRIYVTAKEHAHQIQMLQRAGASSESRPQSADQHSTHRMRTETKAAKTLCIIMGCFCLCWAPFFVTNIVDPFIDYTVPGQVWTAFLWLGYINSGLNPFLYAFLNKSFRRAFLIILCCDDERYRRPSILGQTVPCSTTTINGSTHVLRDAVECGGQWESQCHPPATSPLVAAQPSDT

T1 sequence (P22303 whole entry): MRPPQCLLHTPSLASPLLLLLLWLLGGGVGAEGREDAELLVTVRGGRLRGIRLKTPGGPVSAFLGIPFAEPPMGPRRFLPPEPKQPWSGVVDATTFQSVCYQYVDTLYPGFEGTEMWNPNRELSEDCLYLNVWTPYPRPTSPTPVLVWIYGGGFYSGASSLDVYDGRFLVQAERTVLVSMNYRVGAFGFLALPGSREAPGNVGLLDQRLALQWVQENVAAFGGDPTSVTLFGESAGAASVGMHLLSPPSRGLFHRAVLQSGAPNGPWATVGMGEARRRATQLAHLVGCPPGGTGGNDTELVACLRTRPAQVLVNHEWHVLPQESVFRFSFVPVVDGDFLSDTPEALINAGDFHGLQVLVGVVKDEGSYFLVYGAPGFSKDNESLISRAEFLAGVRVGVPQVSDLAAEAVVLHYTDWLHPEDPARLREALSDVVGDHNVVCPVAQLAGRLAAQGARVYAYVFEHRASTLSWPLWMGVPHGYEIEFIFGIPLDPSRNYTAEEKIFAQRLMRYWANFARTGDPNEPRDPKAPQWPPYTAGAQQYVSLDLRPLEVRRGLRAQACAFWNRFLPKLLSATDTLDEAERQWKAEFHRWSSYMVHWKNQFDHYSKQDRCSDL

With COc1ccc(C(=O)Cc2ncc(C(=O)NC3CCN(Cc4ccccc4)CC3)cn2)cc1 the IC50 (Acetylcholinesterase [1]) was 28 µM and the IC50 (Cholinesterase) was 3.7 µM.
COc1ccc(C(=O)Cc2ncc(C(=O)NCc3cccs3)cn2)cc1 showed an IC50 (Acetylcholinesterase [1]) of 30.7 µM and an IC50 (Cholinesterase) of 3.45 µM.
C/C=C1\[C@H]2C=C(C)C[C@]1(N)c1ccc(=O)[nH]c1C2 [HUPERZINE A] gave an IC50 (Cholinesterase) greater than 10000 µM.
Compound COc1ccc(C(=O)Cc2ncc(C(=O)N(C)CCCOc3ccc(OC)c(OC)c3)cn2)cc1 has an IC50 (Acetylcholinesterase [1]) of 29.8 µM and an IC50 (Cholinesterase) of 8.3 µM.
For COc1ccc(OCCCN(C)C(=O)c2cnc(CC(=O)c3ccc(OC)cc3)nc2)cc1, the IC50 (Acetylcholinesterase [1]) was 9.82 µM and the IC50 (Cholinesterase) was 9.16 µM.
Work on COc1ccc(C(=O)Cc2ncc(C(=O)N(C)CCCOc3cccc(OC)c3)cn2)cc1 yielded an IC50 (Acetylcholinesterase [1]) of 44.9 µM and an IC50 (Cholinesterase) of 8.36 µM.
Work on COc1ccc(C(=O)Cc2ncc(C(=O)N(C)CCCOc3ccc([N+](=O)[O-])cc3)cn2)cc1OC yielded an IC50 (Acetylcholinesterase [1]) of 3.79 µM and an IC50 (Cholinesterase) of 5.73 µM.
For CN(CCCOc1ccc([N+](=O)[O-])cc1)C(=O)c1cnc(CC(=O)c2cccs2)nc1, the IC50 (Acetylcholinesterase [1]) was 0.88 µM, the inhibition (Acetylcholinesterase [2]) was “Active” and the IC50 (Cholinesterase) was 10 µM.
COc1ccc(C(=O)Cc2ncc(C(=O)N(C)CCCOc3c(F)c(F)c(F)c(F)c3F)cn2)cc1 showed an IC50 (Acetylcholinesterase [1]) of 5.14 µM and an IC50 (Cholinesterase) of 28.9 µM.
Compound CN(CCCOc1ccc([N+](=O)[O-])cc1)C(=O)c1cnc(CC(=O)c2ccccc2)nc1 has an IC50 (Acetylcholinesterase [1]) of 9.94 µM and an IC50 (Cholinesterase) of 6.08 µM.
In the case of COc1cc(N)c(Cl)cc1C(=O)CCC1CCN(CC2CCCCC2)CC1, the inhibition [3] is reported as 48.3%.
Compound COc1cccc(C(=O)Cc2ncc(C(=O)N(C)CCCOc3ccc([N+](=O)[O-])cc3)cn2)c1 has an IC50 (Acetylcholinesterase [1]) of 4 µM and an IC50 (Cholinesterase) of 2.59 µM.
Compound CCOc1ccc(C(=O)Cc2ncc(C(=O)N(C)CCCOc3ccc([N+](=O)[O-])cc3)cn2)cc1 has an IC50 (Acetylcholinesterase [1]) of 6.4 µM and an IC50 (Cholinesterase) of 6.66 µM.
In the case of COc1ccc(C(=O)Cc2ncc(C(=O)N3CCN(Cc4ccccc4)CC3)cn2)cc1, the IC50 (Acetylcholinesterase [1]) is reported as 17.3 µM and the IC50 (Cholinesterase) is reported as 5.7 µM.
CN(CCCOc1ccc([N+](=O)[O-])cc1)C(=O)c1cnc(CC(=O)c2ccc3c(c2)OCO3)nc1 showed an IC50 (Acetylcholinesterase [1]) of 0.99 µM and an IC50 (Cholinesterase) of 48.4 µM.
For COc1ccc(C(=O)Cc2ncc(C(=O)NCc3ccc(OC)c(OC)c3)cn2)cc1, the IC50 (Acetylcholinesterase [1]) was 10 µM and the IC50 (Cholinesterase) was 30.7 µM.
In the case of COc1ccc(C(=O)Cc2ncc(C(=O)N(C)CCCOc3ccc(C(F)(F)F)cc3)cn2)cc1, the IC50 (Acetylcholinesterase [1]) is reported as 29.8 µM and the IC50 (Cholinesterase) is reported as 6.24 µM.
COc1ccc(C(=O)Cc2ncc(C(=O)N(C)CCCOc3ccc([N+](=O)[O-])cc3)cn2)cc1 gave an IC50 (Acetylcholinesterase [1]) of 4.56 µM and an IC50 (Cholinesterase) of 13.1 µM.
In the case of COc1ccc(C(=O)Cc2ncc(C(=O)Nc3ccncc3)cn2)cc1, the IC50 (Acetylcholinesterase [1]) is reported as 17.9 µM and the IC50 (Cholinesterase) is reported as 31.4 µM.
